Series [1] addresses T1, human 11β-HSD1 enzyme (Homo sapiens, UniProt P28845).
T1 construct: stably transfected with a construct containing the full-length gene coding for the human 11β-HSD1 enzyme; expressed in transfected cells; HEK293/11β-HSD1 cells)
The experiment in a line: Cellular in vitro 11β-HSD1 enzyme inhibition assay (SPA, HEK293/11β-HSD1 cells). Format: cell-based. Here is the method: Cellular In Vitro 11β-HSD1 Enzyme Inhibition Assay
Compounds were assessed by a Scintillation Proximity Assay (SPA) performed according to the following protocol:
HEK293 cells were stably transfected with a construct containing the full-length gene coding for the human 11β-HSD1 enzyme to create HEK293/11β-HSD1 cells. Cells were routinely cultured in DMEM containing 10% calf foetal serum, 1% glutamine, and 1% penicillin and streptomycin. Prior to assay, cells were plated at 2×10^4 cells/well in 96-well poly-D-Lys coated flat-bottomed microplates and incubated in 5% CO2, 95% O2 at 37° C. for 24 hours. The media in each well was removed immediately before assay.
Compounds to be tested were dissolved in DMSO at 10 mM and serially diluted into water containing 10% DMSO. Diluted compounds at a volume of 10 μL were added to wells of a 96-well V-bottomed microplate. A solution of DMEM, 1% glutamine, 1% penicillin and streptomycin, and 22 nM tritiated cortisone was prepared and 90 μL added to each well of the assay plate. This solution (100 μL/well) was transferred to the plate containing the cells. The plate was then incubated in 5% CO2, 95% O2 at 37° C. for 2 hours.
Following this incubation, 50 μL of the assay solution was transferred to each well of a 96-well scintillation microplate. A mixture consisting of anti-mouse YSi SPA beads, pre-mixed with anti-cortisol antibody in assay buffer (50 mM Tris.HCl, pH 7.0; 300 mM NaCl; 1 mM EDTA, 5% glycerol) was prepared and 50 μL added to each well of the scintillation microplate. An adhesive strip was applied to the microplate and the plate gently shaken for at least 2 hours at room temperature, and then spun briefly on a low speed centrifuge. The plate was read on a scintillation counter suitable for 96-well microplates. For the calculation of percentage inhibition, a series of wells were added to the plate that represented the assay maximum and the assay minimum: one set that contained substrate without cells (minimum) and another set that contained substrate and cells without any compound (maximum).
The calculation of median inhibitory concentration (IC50) values for the compounds was performed using GraphPad Prism® software. Dose-response curves for each compound were plotted as fractional inhibition and data fitted to the four parameter logistic equation.

Series [2] in a line: In vitro human liver microsomal stability assay. Format: in vitro ADME. The settings on record: human liver microsomes. Here is the method: In Vitro Human Liver Microsomal Stability Assay
To predict in vivo metabolism of compounds, the stability of compounds incubated with human liver microsomes in vitro was determined. Human liver microsome preparations were stored at −80° C. and thawed on ice prior to use. The thawed microsomes were diluted to a concentration of 2 mg/mL in 50 mM sodium phosphate, pH 7.4. Reference and test compounds were prepared as 10 mM stocks in 100% DMSO and diluted to 1 mM in acetonitrile before use. Each compound was tested in triplicate as follows:
4 μL of test or reference compound was added to a well of a 24-well microplate and 0.5 mL of 4 mM NADPH added. The plate was then transferred to a shaker for 10 minutes at room temperature. 30 μL of the compound/NADPH solution was transferred to the well of a 96-well microplate and incubated at 37° C. for 5 minutes. 30 μL of human liver microsomes (pre-incubated at 37° C. for 5 minutes) was added to the well containing the compound/NADPH solution and the plate incubated for the selected period of time (typically 0 or 30 minutes). The reaction was stopped by adding 60 μL of ice cold […] trichloroacetic acid. The plate was centrifuged at 1000 rpm for 5 minutes at room temperature and the supernatant transferred to the well of a new 96-well v-bottomed microplate for mass spectrometric analysis.
Samples were analyzed by TSQ Quantum Discovery Tandem Mass Spectrometer and Surveyor Liquid Chromatogram (Thermo, Hemel-Hempstead, UK). 10 μL of each sample was injected in a mobile phase consisting of 60%:40% methanol:5 mM ammonium acetate at a flow rate of 0.5 mL/minute. The column used was a BDS hypersil, C18, 50×2.1 mm with a 5 μm particle size.
Each compound was tuned with a spray voltage of 3000 V and a capillary temperature of 300° C. and values for tube lens, CID and product ions were determined.
The peak area for each compound was measured in triplicate for the 0 and 30 minute samples and the average of each was reported. The percentage remaining after 30 minutes was calculated as the average peak area of the sample after 30 minutes divided by the average peak area at 0 minutes. The RSD was 10% or lower for each compound.
Background: Liver microsomes are a subcellular fraction often used to study metabolism.

Where [3] appears, read: read-out: IC50 for 11β-HSD1 (HEK293).

Where two headings read alike, the source gives them in different places. Some results are limits rather than exact numbers.

These results are taken from patent US8642621B2, “(4-phenyl-piperidin-1-yl)-[5-(1H-pyrazol-4-yl)-thiophen-3-yl]-methanone compounds and their use” (The University Of Edinburgh, priority 2009, dated 2014).

T1 sequence (P28845 whole entry): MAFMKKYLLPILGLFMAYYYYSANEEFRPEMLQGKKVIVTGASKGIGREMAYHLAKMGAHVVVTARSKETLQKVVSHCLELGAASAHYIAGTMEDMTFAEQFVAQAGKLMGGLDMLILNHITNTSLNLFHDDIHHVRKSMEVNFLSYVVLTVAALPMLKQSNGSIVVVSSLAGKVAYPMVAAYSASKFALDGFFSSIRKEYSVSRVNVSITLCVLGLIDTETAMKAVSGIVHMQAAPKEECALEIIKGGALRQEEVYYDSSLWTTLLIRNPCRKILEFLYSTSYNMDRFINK

Take `O=C(c1csc(-c2cn[nH]c2)c1)N1CCC(O)(c2cccc(C(F)(F)F)c2)CC1` [AA-03]: the half-maximal inhibitory concentration (IC50) in series [1] (setting [3]) lay in the range of 500 to 1000 nM.

As for `O=C(c1csc(-c2cn[nH]c2)c1)N1CCC(O)(c2ccc(F)cc2)CC1` [AA-05], in series [2], the “% Parent Remaining at 30 min” value is on record as “+++ (61-100% +++)”. Besides, the IC50 in series [1] (setting [3]) was no more than 500 nM.

Take `O=C(c1csc(-c2cn[nH]c2)c1)N1CCC(O)(c2ccc(Cl)cc2F)CC1` [AA-07]: the “% Parent Remaining at 30 min” value in series [2] was “+++ (61-100% +++)”. The IC50 in series [1] (setting [3]) was no more than 500 nM.

For the compound `O=C(c1csc(-c2cn[nH]c2)c1)N1CCC(O)(c2ccc(F)cc2F)CC1` [AA-09], the “% Parent Remaining at 30 min” value in series [2] is given as “+++ (61-100% +++)”. The IC50 in series [1] (setting [3]) was no more than 500 nM.

As for `O=C(c1csc(-c2cn[nH]c2)c1)N1CCC(O)(c2ccccc2O)CC1` [AA-10], in series [1] (setting [3]), the IC50 is 1000 to 10000 nM.

`O=C(c1csc(-c2cn[nH]c2)c1)N1CCC(O)(c2ccc(Cl)c(Cl)c2)CC1` [AA-11]: in series [1] (setting [3]), the IC50 is no more than 500 nM.

As to `Cc1ccccc1C1(O)CCN(C(=O)c2csc(-c3cn[nH]c3)c2)CC1` [AA-13], in series [1] (setting [3]), the IC50 was no more than 500 nM.

In the case of `O=C(c1csc(-c2cn[nH]c2)c1)N1CCC(O)(c2ccccc2C(F)(F)F)CC1` [AA-14], the IC50 in series [1] (setting [3]) was no more than 500 nM.

In the case of `CC1(c2ccccc2)CCN(C(=O)c2csc(-c3cn[nH]c3)c2)CC1` [AA-16], the “% Parent Remaining at 30 min” value in series [2] was “+ (0-30% +)”. In addition, the IC50 in series [1] (setting [3]) was no more than 500 nM.

Regarding `O=C(c1csc(-c2cn[nH]c2)c1)N1CCC(CO)(c2ccccc2)CC1` [AA-19], in series [1] (setting [3]), the IC50 is 1000 to 10000 nM.

As to `N#CC1(c2ccccc2)CCN(C(=O)c2csc(-c3cn[nH]c3)c2)CC1` [AA-20], in series [1], the IC50 lay in the range of 1000 to 10000 nM.

For `O=C(c1csc(-c2cn[nH]c2)c1)N1CCC(O)(c2cccc(Cl)c2Cl)CC1` [AA-21], the IC50 in series [1] (setting [3]) was no more than 500 nM.

For `O=C(c1csc(-c2cn[nH]c2)c1)N1CCC(O)(c2c(F)cccc2Cl)CC1` [AA-23], the IC50 in series [1] (setting [3]) is no more than 500 nM.

As to `O=C(c1csc(-c2cn[nH]c2)c1)N1CCC(O)(c2ccc(Cl)cc2Cl)CC1` [AA-24], the IC50 in series [1] (setting [3]) was no more than 500 nM.

Consider `COc1ccccc1C1(O)CC2CCC(C1)N2C(=O)c1csc(-c2cn[nH]c2)c1` (stereo not shown) [AA-25], for which the IC50 in series [1] (setting [3]) was no more than 500 nM.

As to `O=C(c1csc(-c2cn[nH]c2)c1)N1CCC(O)(c2cc(F)ccc2Cl)CC1` [AA-26], the IC50 in series [1] (setting [3]) was no more than 500 nM.

Regarding `O=C(c1csc(-c2cn[nH]c2)c1)N1CCC(O)(c2c(Cl)cccc2Cl)CC1` [AA-27], the IC50 in series [1] (setting [3]) was no more than 500 nM.

With `O=C(c1csc(-c2cn[nH]c2)c1)N1CCC(O)(c2c(F)cccc2F)CC1` [AA-28], in series [1] (setting [3]), the IC50 was no more than 500 nM.

With `Cc1n[nH]cc1-c1cc(C(=O)N2CCC(O)(c3ccccc3Cl)CC2)cs1` [AA-29], the IC50 in series [1] (setting [3]) is no more than 500 nM.

Turning to `O=C(c1csc(-c2cn[nH]c2)c1)N1CCC(O)(c2cc(Cl)ccc2Cl)CC1` [AA-31], the IC50 in series [1] (setting [3]) was no more than 500 nM.

In the case of `O=C(c1csc(-c2cn[nH]c2)c1)N1CC2CCC(C1)C2(O)c1ccccc1` (stereo not shown) [AA-32], the IC50 in series [1] (setting [3]) was 500 to 1000 nM.

In the case of `CC1(c2ccccc2Cl)CCN(C(=O)c2csc(-c3cn[nH]c3)c2)CC1` [AA-34], in series [1] (setting [3]), the IC50 is no more than 500 nM.

As to `O=C(c1csc(-c2cn[nH]c2)c1)N1CCC(F)(c2ccc(Cl)cc2)CC1` [AA-35], the IC50 in series [1] (setting [3]) was 500 to 1000 nM.

`O=C(c1csc(-c2cn[nH]c2)c1)N1CCC(F)(c2ccc(Cl)cc2Cl)CC1` [AA-38]: the IC50 in series [1] (setting [3]) was no more than 500 nM.

In the case of `O=C(c1csc(-c2cn[nH]c2)c1)N1CC2CCC(C1)C2(F)c1ccccc1` (stereo not shown) [AA-39, (8-Fluoro-8-phenyl-3-aza-bicyclo[3.2.1]oct-3-yl)-[5-(1H-pyrazol-4-yl)-thiophen-3-yl]methanone], the IC50 in series [1] (setting [3]) lay within 1000 to 10000 nM.

Regarding `Cc1cccc(F)c1C1(F)CCN(C(=O)c2csc(-c3cn[nH]c3)c2)CC1` [AA-40], the IC50 in series [1] (setting [3]) is no more than 500 nM.

In turn, `N#CC1(c2ccccc2Cl)CCN(C(=O)c2csc(-c3cn[nH]c3)c2)CC1` [AA-41] yielded an IC50 in series [1] of 1000 to 10000 nM.

On to `O=C(c1csc(-c2cn[nH]c2)c1)N1CCC(c2ccc(F)cc2)CC1` [BB-01], for which the “% Parent Remaining at 30 min” value in series [2] was “+++ (61-100% +++)”. Further, in series [1] (setting [3]), the IC50 is 500 to 1000 nM.

On to `N#Cc1ccc(C2CCN(C(=O)c3csc(-c4cn[nH]c4)c3)CC2)cc1` [BB-02], for which the IC50 in series [1] (setting [3]) fell in the range of 1000 to 10000 nM.

`N#Cc1ccccc1C1CCN(C(=O)c2csc(-c3cn[nH]c3)c2)CC1` [BB-04]: the “% Parent Remaining at 30 min” value in series [2] was “++ (31-60% ++)”. The IC50 in series [1] (setting [3]) is no more than 500 nM.

In the case of `O=C(c1csc(-c2cn[nH]c2)c1)N1CCC(c2cccc(F)c2)CC1` [BB-05], in series [2], the “% Parent Remaining at 30 min” value is recorded as “++ (31-60% ++)”. Besides, in series [1] (setting [3]), the IC50 is no more than 500 nM.

In the case of `O=C(c1csc(-c2cn[nH]c2)c1)N1CCC(c2ccc(Cl)cc2)CC1` [BB-06], the “% Parent Remaining at 30 min” value in series [2] is listed as “+++ (61-100% +++)”. Moreover, the IC50 in series [1] (setting [3]) lay within 500 to 1000 nM.

Regarding `O=C(c1csc(-c2cn[nH]c2)c1)N1CCC(c2ccccc2F)CC1` [BB-07], the “% Parent Remaining at 30 min” value in series [2] was “+ (0-30% +)”. Moreover, the IC50 in series [1] (setting [3]) was no more than 500 nM.

With `O=C(c1csc(-c2cn[nH]c2)c1)N1CCC(c2ccccc2OC(F)F)CC1` [BB-09], the IC50 in series [1] (setting [3]) is no more than 500 nM.

For the compound `O=C(c1csc(-c2cn[nH]c2)c1)N1CCC(c2ccc(F)cc2F)CC1` [BB-10], the IC50 in series [1] (setting [3]) was in the range of 500 to 1000 nM.

In the case of `Cc1ccccc1C1CCN(C(=O)c2csc(-c3cn[nH]c3)c2)CC1` [BB-12], the IC50 in series [1] (setting [3]) is no more than 500 nM.

Consider `O=C(c1csc(-c2cn[nH]c2)c1)N1CCC(c2ccccc2C(F)(F)F)CC1` [BB-13], for which, in series [2], the “% Parent Remaining at 30 min” value is given as “+++ (61-100% +++)”. Further, in series [1] (setting [3]), the IC50 was 500 to 1000 nM.

With `O=C(c1csc(-c2cn[nH]c2)c1)N1CCC(c2ccccc2CO)CC1` [BB-14], in series [1] (setting [3]), the half-inhibitory concentration (IC50) was no more than 500 nM.

Take `O=C(c1csc(-c2cn[nH]c2)c1)N1CCC(c2ccccc2Cl)CC1` [BB-15]: in series [1] (setting [3]), the half-maximal inhibitory concentration (IC50) was no more than 500 nM.

As a reminder, the IC50 is the concentration at which inhibition is half-maximal.
